Like-named read-outs stand apart in the source and are kept apart here.
Columns and labels:
[1] = system: Zymoseptoria tritici; experiment: Leaf blotch of wheat (SEPTTR) disease control on wheat seedlings; assay type: in vivo, Zymoseptoria tritici on wheat plants (variety Yuma); conditions: LV activity at 121.5 g/H
Description: (§1) Technical grades of materials were dissolved in acetone, which were then mixed with nine volumes of water (H2O) containing 110 ppm Triton X-100. The fungicide solutions were applied onto wheat seedlings using an automated booth sprayer to run-off. All sprayed plants were allowed to air dry prior to further handling. All fungicides were evaluated using the aforementioned method for their activity vs. all target diseases, unless stated otherwise. Wheat leaf blotch and brown rust activity were also evaluated using track spray applications, in which case the fungicides were formulated as EC formulations, containing 0.1% Trycol 5941 in the spray solutions. Wheat plants (variety Yuma) were grown from seed in a greenhouse in 50% mineral soil/50% soil-less Metro mix until the first leaf was fully emerged, with 7-10 seedlings per pot. These plants were inoculated with an aqueous spore suspension of Zymoseptoria tritici either prior to or after fungicide treatments. […] When disease symptoms were fully expressed on the 1st leaves of untreated plants, infection levels were assessed on a scale of 0 to 100 percent disease severity. Percent disease control was calculated using the ratio of disease severity on treated plants relative to untreated plants.

[2] = system: Puccinia triticina; experiment: Wheat brown rust (PUCCRT) disease control on wheat seedlings; assay type: in vivo, Puccinia triticina on wheat plants (variety Yuma); conditions: LV activity at 121.5 g/H
Description: as §1, with “plants. […]” for “plants.”

CCc1cc(OC)ccc1C(c1ccc(OC)cc1OC)[C@H](C)OC(=O)[C@H](C)n1c(=O)oc2c(OC)ccnc2c1=O (stereo partly shown) [Compound 8] was tested, and the pest or weed control at 121.5 g/ha ([1]; 24 h, 1 Day Protectant, read-out: SEPTTR 1DP disease control rating) was > 80%, the pest or weed control at 121.5 g/ha ([1]; 72 h, 3 Day Curative, read-out: SEPTTR 3DC disease control rating) was > 80% and the pest or weed control at 121.5 g/ha ([2]; 24 h, 1 Day Protectant, read-out: PUCCRT 1DP disease control rating) was ≤ 80%. For the same compound, the pest or weed control at 121.5 g/ha ([2]; 72 h, 3 Day Curative, read-out: PUCCRT 3DC disease control rating) was ≤ 80%.

— patent publication US10334852B2, “Pyrido-1,3-oxazine-2,4-dione compounds with fungicidal activity” (Dow AgroSciences LLC, priority 2016, dated 2019)
